From ChEMBL document CHEMBL1150976, “The selectivity of protein kinase inhibitors: a further update” (Biochem J, 2007)

How the values were obtained:
[1] = biological target: Myosin light chain kinase, smooth muscle (Homo sapiens, UniProt Q15746); assay: Percentage SmMLCK activity remaining in the presence of 2uM inhibitor
[2] = biological target: T1, Serine/threonine-protein kinase Chk1 (Homo sapiens) (UniProt O14757); assay: Percentage CHK1 activity remaining in the presence of 2uM inhibitor
T1 sequence (whole entry): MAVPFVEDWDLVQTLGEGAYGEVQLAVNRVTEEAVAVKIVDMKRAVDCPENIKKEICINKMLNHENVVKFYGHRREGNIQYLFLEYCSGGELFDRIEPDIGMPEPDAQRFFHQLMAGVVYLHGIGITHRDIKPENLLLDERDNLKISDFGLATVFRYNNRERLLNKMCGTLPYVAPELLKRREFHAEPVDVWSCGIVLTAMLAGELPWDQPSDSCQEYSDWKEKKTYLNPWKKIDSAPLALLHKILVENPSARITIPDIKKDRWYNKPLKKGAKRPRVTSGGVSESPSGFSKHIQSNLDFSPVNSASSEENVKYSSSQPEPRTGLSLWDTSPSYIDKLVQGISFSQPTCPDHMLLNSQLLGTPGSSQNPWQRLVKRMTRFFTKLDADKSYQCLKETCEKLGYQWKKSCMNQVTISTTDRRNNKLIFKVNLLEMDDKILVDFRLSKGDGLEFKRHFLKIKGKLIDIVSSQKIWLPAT

[3] = biological target: T2, Inhibitor of nuclear factor kappa-B kinase subunit epsilon (Homo sapiens) (UniProt Q14164); assay: Percentage IKKepsilon activity remaining in the presence of 0.1uM inhibitor; details: filed as antagonist
T2 sequence (whole entry): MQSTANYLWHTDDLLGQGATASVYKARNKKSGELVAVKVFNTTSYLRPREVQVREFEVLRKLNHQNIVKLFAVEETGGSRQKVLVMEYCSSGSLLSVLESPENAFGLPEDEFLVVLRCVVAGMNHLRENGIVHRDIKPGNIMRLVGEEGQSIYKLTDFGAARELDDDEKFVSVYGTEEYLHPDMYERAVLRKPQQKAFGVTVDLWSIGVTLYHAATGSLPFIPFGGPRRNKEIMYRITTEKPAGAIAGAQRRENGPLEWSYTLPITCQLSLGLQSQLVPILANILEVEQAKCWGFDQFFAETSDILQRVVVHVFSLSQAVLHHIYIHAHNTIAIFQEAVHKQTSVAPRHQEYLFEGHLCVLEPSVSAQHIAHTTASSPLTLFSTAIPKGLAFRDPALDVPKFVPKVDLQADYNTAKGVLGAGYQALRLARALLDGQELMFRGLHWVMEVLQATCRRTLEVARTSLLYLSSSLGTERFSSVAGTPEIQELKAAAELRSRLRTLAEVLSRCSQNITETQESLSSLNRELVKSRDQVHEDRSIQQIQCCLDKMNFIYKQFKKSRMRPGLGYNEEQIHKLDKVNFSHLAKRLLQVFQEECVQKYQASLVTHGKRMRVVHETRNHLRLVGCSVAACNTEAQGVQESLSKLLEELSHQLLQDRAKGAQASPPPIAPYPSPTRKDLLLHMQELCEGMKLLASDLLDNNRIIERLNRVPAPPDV

[4] = biological target: Cyclin-dependent kinase 2/cyclin A (Homo sapiens, UniProt P24941); assay: Inhibition of CDK2-cyclinA in the presence of 20uM ATP; format: protein-complex assay
[5] = biological target: T3, Serine/threonine-protein kinase Sgk1 (Homo sapiens) (UniProt O00141); assay: Percentage SGK1 activity remaining in the presence of 3uM inhibitor
T3 sequence (whole entry): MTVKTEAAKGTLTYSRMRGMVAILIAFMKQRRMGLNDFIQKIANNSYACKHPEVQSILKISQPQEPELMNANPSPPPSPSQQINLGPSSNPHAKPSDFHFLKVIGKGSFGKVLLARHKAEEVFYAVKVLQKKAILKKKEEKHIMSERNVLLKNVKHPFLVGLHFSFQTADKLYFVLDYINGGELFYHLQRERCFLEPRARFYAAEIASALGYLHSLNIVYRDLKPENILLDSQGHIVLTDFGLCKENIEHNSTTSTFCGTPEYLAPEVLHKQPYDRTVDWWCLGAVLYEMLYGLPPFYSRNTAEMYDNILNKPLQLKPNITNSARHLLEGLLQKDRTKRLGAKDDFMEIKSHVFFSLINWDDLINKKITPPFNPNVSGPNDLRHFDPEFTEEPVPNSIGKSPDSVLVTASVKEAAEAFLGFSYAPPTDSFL

[6] = biological target: Serine/threonine-protein kinase pim-1 (Homo sapiens, UniProt P11309); assay: Percentage PIM1 activity remaining in the presence of 3uM inhibitor
[7] = biological target: Serine/threonine-protein kinase pim-3 (Homo sapiens, UniProt Q86V86); assay: Percentage PIM3 activity remaining in the presence of 3uM inhibitor
[8] = biological target: Mitogen-activated protein kinase 14 (Homo sapiens, UniProt Q16539); assay: Percentage p38alpha activity remaining in the presence of 3uM inhibitor
[9] = biological target: Calcium/calmodulin-dependent protein kinase kinase 1 (Homo sapiens) (UniProt Q8N5S9); assay: Percentage CaMKKalpha activity remaining in the presence of 3uM inhibitor
[10] = biological target: T4, Dual specificity tyrosine-phosphorylation-regulated kinase 3 (Homo sapiens) (UniProt O43781); assay: Percentage DYRK3 activity remaining in the presence of 3uM inhibitor
T4 sequence (whole entry): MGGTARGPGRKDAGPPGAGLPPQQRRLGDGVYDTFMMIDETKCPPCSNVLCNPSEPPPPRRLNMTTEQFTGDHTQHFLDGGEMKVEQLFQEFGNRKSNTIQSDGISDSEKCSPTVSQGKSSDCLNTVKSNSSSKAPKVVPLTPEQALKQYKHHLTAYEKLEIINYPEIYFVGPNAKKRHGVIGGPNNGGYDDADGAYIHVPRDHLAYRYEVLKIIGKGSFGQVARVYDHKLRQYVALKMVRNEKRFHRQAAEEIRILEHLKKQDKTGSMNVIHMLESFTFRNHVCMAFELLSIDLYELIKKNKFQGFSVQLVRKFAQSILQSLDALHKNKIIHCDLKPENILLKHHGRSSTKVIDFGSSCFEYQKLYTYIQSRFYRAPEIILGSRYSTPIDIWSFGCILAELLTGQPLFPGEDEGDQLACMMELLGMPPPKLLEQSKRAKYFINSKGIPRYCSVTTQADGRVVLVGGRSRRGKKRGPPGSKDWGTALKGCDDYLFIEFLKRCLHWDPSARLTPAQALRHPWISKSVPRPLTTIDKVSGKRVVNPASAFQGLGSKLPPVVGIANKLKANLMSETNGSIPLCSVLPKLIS

Chain of Mitogen-activated protein kinase 14 (Q16539 whole entry): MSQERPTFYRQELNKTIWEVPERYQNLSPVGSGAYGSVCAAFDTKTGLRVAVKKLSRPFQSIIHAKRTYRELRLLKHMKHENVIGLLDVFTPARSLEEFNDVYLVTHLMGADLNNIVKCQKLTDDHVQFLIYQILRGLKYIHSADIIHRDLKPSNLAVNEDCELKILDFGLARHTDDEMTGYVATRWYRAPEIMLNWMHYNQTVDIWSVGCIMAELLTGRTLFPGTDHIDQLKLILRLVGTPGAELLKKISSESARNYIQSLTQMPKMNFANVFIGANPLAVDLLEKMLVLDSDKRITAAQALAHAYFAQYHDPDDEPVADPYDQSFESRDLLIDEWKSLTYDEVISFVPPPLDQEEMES
Chain of Serine/threonine-protein kinase pim-1 (P11309 whole entry, looked up): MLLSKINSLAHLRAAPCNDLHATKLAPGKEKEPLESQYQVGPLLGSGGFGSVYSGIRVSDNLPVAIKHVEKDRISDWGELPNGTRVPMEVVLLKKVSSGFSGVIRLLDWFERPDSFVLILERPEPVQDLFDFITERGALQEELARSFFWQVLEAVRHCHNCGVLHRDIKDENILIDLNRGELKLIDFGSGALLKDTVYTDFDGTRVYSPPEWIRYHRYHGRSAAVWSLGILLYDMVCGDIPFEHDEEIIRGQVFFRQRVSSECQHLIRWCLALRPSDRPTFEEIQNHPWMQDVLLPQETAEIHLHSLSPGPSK
Chain of Myosin light chain kinase, smooth muscle (Q15746 whole entry): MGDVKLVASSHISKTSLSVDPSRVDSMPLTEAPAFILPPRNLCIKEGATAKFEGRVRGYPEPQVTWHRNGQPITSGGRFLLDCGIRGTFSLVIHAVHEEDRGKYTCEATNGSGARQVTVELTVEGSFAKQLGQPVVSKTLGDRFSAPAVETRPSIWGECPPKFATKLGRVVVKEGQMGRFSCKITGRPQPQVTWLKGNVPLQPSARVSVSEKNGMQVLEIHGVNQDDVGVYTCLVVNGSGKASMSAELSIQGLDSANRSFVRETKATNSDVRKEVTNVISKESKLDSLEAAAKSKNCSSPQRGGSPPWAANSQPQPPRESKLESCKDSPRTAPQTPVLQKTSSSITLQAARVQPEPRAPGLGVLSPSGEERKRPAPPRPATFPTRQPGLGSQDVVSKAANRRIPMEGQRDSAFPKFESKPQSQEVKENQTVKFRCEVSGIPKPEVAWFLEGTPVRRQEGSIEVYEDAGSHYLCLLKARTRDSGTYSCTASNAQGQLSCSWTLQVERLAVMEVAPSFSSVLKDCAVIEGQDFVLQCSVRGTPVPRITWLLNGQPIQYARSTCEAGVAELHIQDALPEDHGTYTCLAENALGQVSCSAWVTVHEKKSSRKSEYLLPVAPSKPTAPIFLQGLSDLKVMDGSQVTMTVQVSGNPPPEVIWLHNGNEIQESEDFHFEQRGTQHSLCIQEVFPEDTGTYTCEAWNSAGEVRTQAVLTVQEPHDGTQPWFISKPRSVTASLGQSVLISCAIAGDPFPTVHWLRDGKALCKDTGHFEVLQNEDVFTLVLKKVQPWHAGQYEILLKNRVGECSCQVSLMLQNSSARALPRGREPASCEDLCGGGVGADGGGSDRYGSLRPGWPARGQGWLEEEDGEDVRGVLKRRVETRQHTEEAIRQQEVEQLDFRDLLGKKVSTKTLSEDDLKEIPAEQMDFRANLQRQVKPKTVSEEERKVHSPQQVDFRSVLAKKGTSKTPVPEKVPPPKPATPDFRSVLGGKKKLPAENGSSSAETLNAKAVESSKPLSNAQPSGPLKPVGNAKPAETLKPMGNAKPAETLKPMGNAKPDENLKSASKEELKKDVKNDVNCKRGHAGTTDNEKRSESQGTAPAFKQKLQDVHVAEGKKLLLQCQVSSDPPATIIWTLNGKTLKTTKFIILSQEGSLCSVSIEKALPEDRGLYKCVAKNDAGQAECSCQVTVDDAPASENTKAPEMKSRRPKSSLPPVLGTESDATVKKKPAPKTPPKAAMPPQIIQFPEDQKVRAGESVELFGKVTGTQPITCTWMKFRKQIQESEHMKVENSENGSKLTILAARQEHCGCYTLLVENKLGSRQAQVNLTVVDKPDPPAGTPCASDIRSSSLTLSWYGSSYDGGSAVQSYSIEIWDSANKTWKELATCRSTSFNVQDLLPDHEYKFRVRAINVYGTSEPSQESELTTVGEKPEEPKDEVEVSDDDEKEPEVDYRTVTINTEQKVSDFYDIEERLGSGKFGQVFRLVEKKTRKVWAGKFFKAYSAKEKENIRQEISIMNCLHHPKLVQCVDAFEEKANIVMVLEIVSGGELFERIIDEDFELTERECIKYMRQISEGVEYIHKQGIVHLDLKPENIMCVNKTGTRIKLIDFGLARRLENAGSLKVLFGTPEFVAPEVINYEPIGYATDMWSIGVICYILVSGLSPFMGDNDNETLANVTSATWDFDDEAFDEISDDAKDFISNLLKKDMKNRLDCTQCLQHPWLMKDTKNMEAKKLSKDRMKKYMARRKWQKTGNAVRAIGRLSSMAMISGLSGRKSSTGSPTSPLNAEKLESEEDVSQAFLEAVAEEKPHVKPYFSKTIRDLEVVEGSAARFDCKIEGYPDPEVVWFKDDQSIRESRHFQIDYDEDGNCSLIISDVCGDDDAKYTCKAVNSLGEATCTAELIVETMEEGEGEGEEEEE
Chain of Calcium/calmodulin-dependent protein kinase kinase 1 (Homo sapiens) (Q8N5S9 whole entry, looked up): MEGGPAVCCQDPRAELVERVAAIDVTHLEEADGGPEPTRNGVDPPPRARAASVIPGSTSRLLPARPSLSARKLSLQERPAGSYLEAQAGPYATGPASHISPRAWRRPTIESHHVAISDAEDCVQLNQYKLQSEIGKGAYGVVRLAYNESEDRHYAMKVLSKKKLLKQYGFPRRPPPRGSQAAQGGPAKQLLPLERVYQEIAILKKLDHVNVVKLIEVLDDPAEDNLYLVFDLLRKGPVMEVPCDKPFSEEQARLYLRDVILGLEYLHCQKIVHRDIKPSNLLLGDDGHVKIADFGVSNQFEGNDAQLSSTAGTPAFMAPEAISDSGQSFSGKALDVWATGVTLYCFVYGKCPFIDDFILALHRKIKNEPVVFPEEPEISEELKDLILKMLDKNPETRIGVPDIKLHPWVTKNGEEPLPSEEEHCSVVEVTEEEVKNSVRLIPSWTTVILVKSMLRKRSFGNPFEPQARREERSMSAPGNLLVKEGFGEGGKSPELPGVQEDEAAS

Work on Cn1cc(C2=C(c3ccc(Cl)cc3Cl)C(=O)NC2=O)c2ccccc21 yielded an Activity [1] of 60% and an Activity [2] of 87%.
O=C(NCCCNc1nc(Nc2cccc(NC(=O)N3CCCC3)c2)ncc1I)c1cccs1 was tested, and the Activity [3] was 0%.
CC(C)[C@H](CO)Nc1nc(Nc2cccc(Cl)c2)c2ncn(C(C)C)c2n1 [PURVALANOLA] was tested, and the IC50 [4] was 30 nM (antagonist).
Work on Cc1ccc(-c2c(C(=O)CF)n(CCCO)c3ncnc(N)c23)cc1 yielded an Activity [5] of 107%, an Activity [6] of 61% and an Activity [7] of 56%. The Activity [8] was 72%, the Activity [9] was 70% and the Activity [10] was 68%.
